Here are results for one compound from PMC11444331 (Journal of medicinal chemistry, 2024).

Bridge positions count the residues as written; N and C are the ends. Peptide text beside a SMILES is read from it.

One assay deals with human α9α10 nAChRs (Homo sapiens, UniProt Q9GZZ6+Q9UGM1). Briefly: cell-based.
Another assay addresses human α7 nAChRs (Homo sapiens, UniProt P36544). The assay can be described thus: cell-based.

The IC50 is the concentration that inhibits the measured activity by half. High values mean a need for much substance, low ones inhibition by little substance.

Chain of human α7 nAChRs (P36544 23-502 limits assumed): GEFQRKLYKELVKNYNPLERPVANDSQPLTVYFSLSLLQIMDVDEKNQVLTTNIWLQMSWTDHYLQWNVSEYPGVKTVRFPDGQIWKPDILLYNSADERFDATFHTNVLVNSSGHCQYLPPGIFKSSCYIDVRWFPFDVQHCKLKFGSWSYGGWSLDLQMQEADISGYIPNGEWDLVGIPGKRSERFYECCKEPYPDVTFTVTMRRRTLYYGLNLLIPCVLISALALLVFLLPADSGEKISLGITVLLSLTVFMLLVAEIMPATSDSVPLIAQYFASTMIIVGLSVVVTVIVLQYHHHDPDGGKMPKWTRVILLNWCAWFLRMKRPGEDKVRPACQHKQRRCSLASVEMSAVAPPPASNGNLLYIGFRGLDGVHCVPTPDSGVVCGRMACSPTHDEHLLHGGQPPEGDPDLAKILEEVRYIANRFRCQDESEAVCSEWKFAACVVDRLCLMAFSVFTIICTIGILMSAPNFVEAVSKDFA
Chain of human α9α10 nAChRs (Q9UGM1 26-479 limits assumed): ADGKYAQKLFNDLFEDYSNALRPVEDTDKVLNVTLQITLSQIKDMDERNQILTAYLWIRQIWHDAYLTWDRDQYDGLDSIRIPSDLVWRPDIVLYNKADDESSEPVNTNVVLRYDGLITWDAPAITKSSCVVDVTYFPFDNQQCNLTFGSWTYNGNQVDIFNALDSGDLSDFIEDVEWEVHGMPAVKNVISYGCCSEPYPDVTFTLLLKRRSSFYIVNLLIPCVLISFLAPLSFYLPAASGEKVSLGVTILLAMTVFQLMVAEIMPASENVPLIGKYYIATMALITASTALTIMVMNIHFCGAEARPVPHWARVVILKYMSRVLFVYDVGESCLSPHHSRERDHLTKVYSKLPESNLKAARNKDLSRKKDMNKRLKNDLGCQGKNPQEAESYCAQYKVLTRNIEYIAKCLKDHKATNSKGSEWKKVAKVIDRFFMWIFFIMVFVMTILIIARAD
Chain of human α9α10 nAChRs (Q9GZZ6 25-450 limits assumed): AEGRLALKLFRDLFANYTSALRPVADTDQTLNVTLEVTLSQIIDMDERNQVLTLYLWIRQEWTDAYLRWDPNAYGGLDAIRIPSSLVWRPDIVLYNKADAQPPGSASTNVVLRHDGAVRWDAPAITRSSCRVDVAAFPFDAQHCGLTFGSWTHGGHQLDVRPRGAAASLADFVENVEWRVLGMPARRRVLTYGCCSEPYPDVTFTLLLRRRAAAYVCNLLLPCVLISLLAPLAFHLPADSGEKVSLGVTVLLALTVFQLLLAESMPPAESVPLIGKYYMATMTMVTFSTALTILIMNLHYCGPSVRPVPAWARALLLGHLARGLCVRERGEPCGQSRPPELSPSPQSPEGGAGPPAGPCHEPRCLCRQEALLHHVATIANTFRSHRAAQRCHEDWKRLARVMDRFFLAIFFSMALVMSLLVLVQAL

With `C[C@@H]1NC(=O)[C@H](CCCNC(=N)N)NC(=O)[C@H](CO)NC(=O)[C@H](CCCNC(=N)N)NC(=O)[C@H](CO)NC(=O)[C@@H]2CSSC[C@H](NC(=O)CN)C(=O)N[C@@H](CSSC[C@@H](C(N)=O)NC(=O)[C@H](CO)NC(=O)[C@H](CO)NC1=O)C(=O)N[C@@H](CO)C(=O)N[C@@H](Cc1c[nH]cn1)C(=O)N1CCC[C@H]1C(=O)N[C@@H](C)C(=O)N2` [conofurin-Delta-SRSRASS] (H-GCCSHPACSRSRASSC-NH2; disulfide 2-8, 3-16), the IC50 against human α9α10 nAChRs is > 10 µM; against human α7 nAChRs, 5.4 µM.
